Patent publication EP2295964A1, “Irrigation solution” (priority 2009, dated 2011)

Settings: human, in vivo, iv
Procedure: The kinetics of the glucose infusion was studied to characterize how effectively the volunteers handled the glucose molecules as well as the accompanying water volume. […] 2003, 90, 600-607, in which the plasma concentration of glucose above baseline (C) at any time (t) resulting from the infusion rate ki is calculated by using the following differential equation: (dC)/(dt) = (ki -(CL×C(t)))/(Vd) [formula] in which Vd is the volume of distribution and CL is the glucose clearance.
The data were normally distributed and thus results were expressed as the mean and standard deviation (SD). Correlations were evaluated by linear regression analysis. P < 0.05 was considered statistically significant.

Vd, volume of distribution of exogenous glucose: 15.52 L
Substance: D-glucose
